{"source": "patent US7368565B2", "about": "“Methods for preparation of cytotoxic conjugates of maytansinoids and cell binding agents” (Immunogen Inc., priority 2001, dated 2008)", "molecules": {"B1": {"name": "huN901-DM1 conjugate (Sephadex G25): huN901 antibody conjugated in one step with maytansinoid 2, Sephadex G25 purified, average 2.08 DM1 per antibody (conjugate, chains of the INN, looked up)", "VH": "QVQLVESGGGVVQPGRSLRLSCAASGFTFSSFGMHWVRQAPGKGLEWVAYISSGSFTIYYADSVKGRFTISRDNSKNTLYLQMNSLRAEDTAVYYCARMRKGYAMDYWGQGTLVTVSS", "VL": "DVVMTQSPLSLPVTLGQPASISCRSSQIIIHSDGNTYLEWFQQRPGQSPRRLIYKVSNRFSGVPDRFSGSGSGTDFTLKISRVEAEDVGVYYCFQGSHVPHTFGQGTKVEIK", "modifications": "DM1 maytansinoid conjugate", "notes": "huN901 antibody conjugated in one step with maytansinoid 2, Sephadex G25 purified, average 2.08 DM1 per antibody"}, "B2": {"name": "huN901: control unconjugated antibody whose antigen is NCAM/CD56 (antibody, chains of the INN, looked up, V domains shown)", "VH": "B1 VH", "VL": "B1 VL"}, "B3": {"name": "huN901-DM1 conjugate (Sephacryl S300): huN901 antibody conjugated in one step with maytansinoid 2, Sephacryl S300 purified, average 1.61 DM1 per antibody (conjugate, chains of the INN, looked up)", "VH": "B1 VH", "VL": "B1 VL", "modifications": "DM1 maytansinoid conjugate", "notes": "huN901 antibody conjugated in one step with maytansinoid 2, Sephacryl S300 purified, average 1.61 DM1 per antibody"}}, "key": {"L1210 cells": {"test_system": "L1210 cells", "conditions": "L1210 cells treated in vivo; untreated control mitotic index 3.2 to 5.8%; cited from earlier work"}, "[1]": {"test_system": "P388, L1210, and LY5178 murine leukemic cell suspensions", "conditions": "in vitro; P388 line the most sensitive; cited from earlier work"}, "[2]": {"test_system": "human acute lymphoblastic leukemia line CEM", "conditions": "in vitro; cited from earlier work"}, "[3]": {"test_system": "human nasopharyngeal carcinoma cells", "conditions": "cited from earlier work"}, "[4]": {"test_system": "P388 lymphocytic leukemia system", "conditions": "in vivo; suggested a high therapeutic index; cited from earlier work"}, "[5]": {"test_system": "L1210 mouse leukemia system", "conditions": "in vivo; cited from earlier work"}, "[6]": {"test_system": "Lewis lung carcinoma system", "conditions": "in vivo; cited from earlier work"}, "[7]": {"test_system": "B-16 melanocarcinoma system", "conditions": "in vivo; cited from earlier work"}, "[8]": {"conditions": "more cytotoxic; cited from earlier work"}, "[9]": {"test_system": "A431 cells constitutively expressing the antigen for huN901 (NCAM/CD56)", "experiment": "in vitro cytotoxicity (colony formation) towards antigen-expressing cells", "format": "cell-based, human", "conditions": "5 to 7 days incubation; for IC50: surviving fraction, FIG. 1, read-out: IC50 in killing antigen positive cells", "experimental": "The huN901-DM1 conjugates prepared by this new, one step method were evaluated for in vitro cytotoxicity towards antigen-expressing cells as follows. A clone of A431 cells constitutively expressing the antigen for huN901 (NCAM/CD56) were used in this assay. Cells were plated into 6-well tissue-culture treated plates at a density of 2×10^3 cells/well in 2 ml of DMEM medium supplemented with 10% fetal calf serum and penicillin+streptomycin. A huN901-DM1 conjugate or the control huN901 antibody was added to the wells at the time of plating, and the cultures were incubated in a tissue culture incubator at 37° C., 6% CO2, for 5 to 7 days to form colonies not smaller than 25 cells/colony. The plates were then washed with PBS, and then fixed/stained for 30 min at room temperature with 10% formaldehyde/0.2% (w/v) Crystal Violet in PBS. The wells were rinsed 3 times with water, dried by air, and the colonies were counted under a dissection low magnification microscope. The surviving fractions were calculated as the number of colonies in drug-treated well/number of colonies in non-treated well."}}}
{"molecule": "COc1cc2cc(c1Cl)N(C)C(=O)C[C@H](OC(=O)[C@H](C)N(C)C(C)=O)[C@]1(C)O[C@H]1[C@H](C)[C@@H]1C[C@@](O)(NC(=O)O1)[C@H](OC)/C=C/C=C(\\C)C2", "note": "[maytansine]", "values": [{"measurement": "cells accumulating in mitosis", "setting": "L1210 cells", "result": 67, "unit": "%"}, {"measurement": "doses at which cell suspensions were inhibited", "setting": "[1]", "result": "10^−3 to 10^−1 μg/μl"}, {"measurement": "concentrations at which the line was inhibited", "setting": "[2]", "result": "≥ 10^−7 mg/ml"}, {"measurement": "inhibition of in vitro growth", "setting": "[3]", "result": "active inhibitor"}, {"measurement": "dosage range over which tumor growth was inhibited", "setting": "[4]", "result": "50- to 100 fold"}, {"measurement": "inhibitory activity", "setting": "[5]", "result": "significant inhibitory activity"}, {"measurement": "inhibitory activity", "setting": "[6]", "result": "significant inhibitory activity"}, {"measurement": "inhibitory activity", "setting": "[7]", "result": "significant inhibitory activity"}, {"measurement": "cytotoxicity relative to conventional cancer chemotherapeutic agents like methotrexate, daunorubicin, and vincristine", "setting": "[8]", "result": "100 to 1000", "unit": "fold"}]}
{"molecule": "B1", "values": [{"measurement": "IC50", "setting": "[9]", "result": 0.1, "unit": "nM"}]}
{"molecule": "B2", "values": [{"measurement": "toxicity to antigen positive cells", "setting": "[9]; FIG. 1", "result": "non-toxic"}]}
{"molecule": "B3", "values": [{"measurement": "IC50", "setting": "[9]", "result": 0.1, "unit": "nM"}]}
